Here are results for 15 molecules from patent US10745365B2, “Luminogenic and fluorogenic compounds and methods to detect molecules or conditions” (Promega Corporation, priority 2005, dated 2020).

Assay type in all cases: biochemical
One data set has as its target T1, beta-glucuronidase (GUS) (Homo sapiens, UniProt P08236).
T1 construct: purchased Sigma-Aldrich
T1 sequence (P08236 23-651): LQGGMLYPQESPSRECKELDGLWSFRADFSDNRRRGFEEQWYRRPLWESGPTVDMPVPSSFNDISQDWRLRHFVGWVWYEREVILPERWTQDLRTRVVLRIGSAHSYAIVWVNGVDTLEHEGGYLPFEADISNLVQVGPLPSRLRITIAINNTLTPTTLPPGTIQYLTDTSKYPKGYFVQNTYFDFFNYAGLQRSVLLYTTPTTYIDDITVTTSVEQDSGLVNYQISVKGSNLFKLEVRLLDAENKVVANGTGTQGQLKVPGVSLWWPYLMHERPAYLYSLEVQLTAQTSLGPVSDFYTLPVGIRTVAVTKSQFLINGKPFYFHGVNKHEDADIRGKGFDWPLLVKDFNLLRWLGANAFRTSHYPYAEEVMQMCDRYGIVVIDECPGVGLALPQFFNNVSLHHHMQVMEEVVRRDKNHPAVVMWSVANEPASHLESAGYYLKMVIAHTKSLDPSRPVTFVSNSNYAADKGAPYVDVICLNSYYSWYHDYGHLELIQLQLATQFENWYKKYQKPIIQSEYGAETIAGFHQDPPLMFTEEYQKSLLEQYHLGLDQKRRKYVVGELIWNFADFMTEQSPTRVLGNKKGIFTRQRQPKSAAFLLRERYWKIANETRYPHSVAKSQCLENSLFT
The data set is described as follows: Beta-glucuronidase (GUS) assay. The protocol:
The source of the human enzyme was Sigma-Aldrich. GUS was incubated with the substrate in 50 mM MES, pH 6.3, for 15 minutes.

Another data set concerns the target T2, GST M1-1 (Homo sapiens, UniProt P09488, K173N).
T2 construct: purchased Sigma
T2 sequence (P09488 1-218 K173N): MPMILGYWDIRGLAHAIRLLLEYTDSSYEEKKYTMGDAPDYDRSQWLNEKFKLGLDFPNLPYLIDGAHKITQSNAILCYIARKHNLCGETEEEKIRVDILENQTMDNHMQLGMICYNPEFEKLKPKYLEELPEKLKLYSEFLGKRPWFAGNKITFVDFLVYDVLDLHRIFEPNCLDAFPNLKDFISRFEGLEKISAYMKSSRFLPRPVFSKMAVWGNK
Description: Luminescent GST assay with GST M1-1. The note with it: light generating reaction.

In data set [1] the test system is panel of recombinant human P450s. Description: Two-step luminescent screen of luciferin derivatives against a panel of recombinant human P450s and HLM. To be noted: 50 μM substrate, panel of FIGS. 17-18. The protocol: P450s are Supersomes™ purchased from Discovery Labware (BD/Gentest). […] HLM is human liver microsomes.
1× substrate concentration: 50 μM.
The HLM reactions contained […] reaction, except where indicated otherwise. Control insect cell membranes were at 50 μg/50 μL.
For FIG. 20, the panel of human P450s was screened as described above.

Data set [2] concerns the target T3, yeast alcohol dehydrogenase (Saccharomyces cerevisiae, UniProt P00330).
T3 construct: purchased Sigma Chem Co. A 7011
T3 sequence (P00330 1-348): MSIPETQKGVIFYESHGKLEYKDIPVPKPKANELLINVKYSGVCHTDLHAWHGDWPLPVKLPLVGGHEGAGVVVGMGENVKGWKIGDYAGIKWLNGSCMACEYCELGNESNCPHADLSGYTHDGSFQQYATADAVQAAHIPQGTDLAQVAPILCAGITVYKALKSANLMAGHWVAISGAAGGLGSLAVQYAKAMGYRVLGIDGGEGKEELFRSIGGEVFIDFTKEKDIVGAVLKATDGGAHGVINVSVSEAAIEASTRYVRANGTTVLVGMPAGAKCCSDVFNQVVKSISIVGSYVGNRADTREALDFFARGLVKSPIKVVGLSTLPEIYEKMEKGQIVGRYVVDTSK
Description: Conversion of luciferol by yeast alcohol dehydrogenase. The note with it: room temperature. As to the method:
A luciferin derivative, luciferol, was employed as a substrate for alcohol dehydrogenase (ADH). The derivative was tested in a two step format. For the first step, the derivative was added to a mixture with one of four ADHs. At different times after the reaction was initiated, a portion was removed and mixed with a luciferase reaction mixture. Reactions in which light production increased over time indicate that luciferol is a substrate for the ADH in that reaction.
Y ADH solution: 7500 units of yeast alcohol dehydrogenase (Sigma Chem Co. A 7011) was dissolved in 1 ml of 50 mM Bis Tris pH 6.5.
NAD+ solution: 66 mg of NAD+(Sigma Chem. Co. N 1511-250) was dissolved in 2 ml of Bis Tris, pH 6.5 and 8 ml of water.
Luciferol solution: approximately 4 mg of luciferol was dissolved in 1 ml of dimethylformamide (Aldrich 27,054-7).
AU reactions were kept at room temperature.

On to `Cc1cc(=O)oc2cc(O[C@@H]3O[C@H](C(=O)O)[C@@H](O)[C@H](O)[C@H]3O)ccc12` [4-methylumbelliferyl glucuronide], for which the “signal-to-noise, fluorescence” value is given as 7.5 on beta-glucuronidase (GUS) ([GUS] 4.3 ng/ml); 15.6 on beta-glucuronidase (GUS) ([GUS] 8.7 ng/ml); 76.5 at beta-glucuronidase (GUS) ([GUS] 34.7 ng/ml); 164.6 at beta-glucuronidase (GUS) ([GUS] 69.4 ng/ml); 376.8 on beta-glucuronidase (GUS) ([GUS] 138.8 ng/ml); 861.4 at beta-glucuronidase (GUS) ([GUS] 277.5 ng/ml).

For `COC(=O)[C@H]1CSC(c2ccc3cc(Oc4ccc(C(F)(F)F)cc4[N+](=O)[O-])ccc3n2)=N1` [GST-4, Methyl 6-(2-nitro-4-trifluoromethyl-phenoxy)quinolinyl-luciferin ester], the “GST preference” value at GST M1-1 is “better substrate for GST M1-1 in a light generating reaction than GST A1-1”.

For `O=C(O)C1CSC(c2nc3ccc(OCc4cccc(CN5CCN(c6ccccc6)CC5)c4)cc3s2)=N1` (centres unmarked) [Luciferin 3-(4-phenylpiperazin-1-yl)methylbenzyl ether], the “P450 enzyme activity / selectivity (words)” value was “selective for three members of the CYP3A subfamily, CYP3A4, CYP3A5 and CYP3A7” in data set [1]; “did not cross react with 4F1 2” in data set [1] (listed as 6′(3-((4-phenylpiperizin-1-yl))methyl)benzyloxy) luciferin).

Consider `O=C(Nc1ccc2nc(C3=NC(C(=O)O)CS3)sc2c1)OCc1ccccc1` (centres unmarked) [N-benzyloxycarbonyl aminoluciferin], for which the “P450 enzyme activity / selectivity (words)” value in data set [1] is “strong selectivity for CYP1A1”.

For the molecule `CC(C)COC(=O)Nc1ccc2nc(C3=NC(C(=O)O)CS3)sc2c1` (centres unmarked) [N-isobutoxycarbonyl aminoluciferin], the “P450 enzyme activity / selectivity (words)” value in data set [1] is “strong selectivity for CYP1A1”.

`COc1ccc2cc(C3=N[C@@H](C(=O)O)CS3)ccc2c1` [Naphthylluciferin 6-methyl ether]: the “P450 enzyme activity / selectivity (words)” value in data set [1] was “substrate for 4A11”.

As to `COc1ccc2nc(C3=NC(C(=O)O)CS3)ccc2c1` (centres unmarked) [Quinolylluciferin 6-methyl ether], the “P450 enzyme activity / selectivity (words)” value in data set [1] is “preferred substrate for 1A2 and 4A1 1”; in data set [1] (listed as quinolyl luciferin-6-methyl ether), “enhanced selectivity for CYP4A11”.

In the case of `COC(=O)[C@H]1CSC(c2nc3ccc(OC)cc3s2)=N1` [carboxyl ester of luciferin-ME, carboxyl methyl ester of luciferin-ME], the “P450 enzyme activity / selectivity (words)” value in data set [1] is on record as “reacted strongly with several other P450s including CYP2C19”.

In the case of `COC(=O)[C@H]1CSC(c2nc3ccccc3s2)=N1` [carboxyl methyl ester of deoxyluciferin], the “P450 enzyme activity / selectivity (words)” value in data set [1] was “substantial activity with CYP2C19 and strong selectivity for this enzyme over the others tested”.

As to `O=C(OCc1cccnc1)[C@H]1CSC(c2nc3ccccc3s2)=N1` [carboxyl picolinyl ester of luciferin-H], the “P450 enzyme activity / selectivity (words)” value in data set [1] was “preference for 2C19, 1A1 and 1A2”.

Regarding `COc1ccc2nc(C3=N[C@@H](C(=O)O)CS3)sc2c1` [luciferin 6-methyl ether, reference compound], the “P450 enzyme activity / selectivity (words)” value in data set [1] is listed as “extremely low activity with CYP2D6”.

`COc1ccc2nc(C3=N[C@@H](C(=O)NN)CS3)sc2c1` [luciferin-6-methylether hydrazide]: the “P450 enzyme activity / selectivity (words)” value in data set [1] is on record as “good selectivity for CYP 1A2 over the other P450s tested”.

For `OC[C@H]1CSC(c2nc3ccc(O)cc3s2)=N1` [luciferol], the Light produced in data set [2] (Rx 7: 5 μl yeast ADH, 30 minutes after luciferol addition) is 6.184; in data set [2] (Rx 7: 5 μl yeast ADH, 60 minutes after luciferol addition), 6.052; in data set [2] (Rx 7: 5 μl yeast ADH, 95 minutes after luciferol addition), 5.980; in data set [2] (Rx 7: 5 μl yeast ADH, 190 minutes after luciferol addition), 6.640; in data set [2] (Rx 7: 5 μl yeast ADH, 280 minutes after luciferol addition) it was 7.988; in data set [2] (Rx 8: 10 μl yeast ADH, 30 minutes after luciferol addition), 6.126. For the same molecule, the Light produced in data set [2] (Rx 8: 10 μl yeast ADH, 60 minutes after luciferol addition) is listed as 5.468; in data set [2] (Rx 8: 10 μl yeast ADH, 95 minutes after luciferol addition) it was 5.552; in data set [2] (Rx 8: 10 μl yeast ADH, 190 minutes after luciferol addition), 6.198; in data set [2] (Rx 8: 10 μl yeast ADH, 280 minutes after luciferol addition), 6.903; in data set [2] (Rx 9: 20 μl yeast ADH, 30 minutes after luciferol addition), 5.406; in data set [2] (Rx 9: 20 μl yeast ADH, 60 minutes after luciferol addition), 5.608. Also, the Light produced amounted to 6.301 in data set [2] (Rx 9: 20 μl yeast ADH, 95 minutes after luciferol addition); 5.825 in data set [2] (Rx 9: 20 μl yeast ADH, 190 minutes after luciferol addition); 6.734 in data set [2] (Rx 9: 20 μl yeast ADH, 280 minutes after luciferol addition); 9.672 in data set [2] (Rx 10: 20 μl yeast ADH, 10 μl luciferol, 30 minutes after luciferol addition); 9.531 in data set [2] (Rx 10: 20 μl yeast ADH, 10 μl luciferol, 60 minutes after luciferol addition); 10.00 in data set [2] (Rx 10: 20 μl yeast ADH, 10 μl luciferol, 95 minutes after luciferol addition). Moreover, the Light produced in data set [2] (Rx 10: 20 μl yeast ADH, 10 μl luciferol, 190 minutes after luciferol addition) is listed as 10.36; in data set [2] (Rx 10: 20 μl yeast ADH, 10 μl luciferol, 280 minutes after luciferol addition) it was 11.71.

Turning to `O=C(O)C1CSC(c2ccc3cc(OCc4ccccc4)ccc3n2)=N1` (centres unmarked) [quinolylluciferin 6-benzyl ether], the “P450 enzyme activity / selectivity (words)” value in data set [1] was “preferred substrate for 3A7, and to a lesser degree a substrate for 3A4 and 2C8”.

As to `COc1ccc2nc(C3=NC(C(=O)O)CS3)cnc2c1` (centres unmarked) [quinoxalylluciferin 6-methyl ether], in data set [1], the “P450 enzyme activity / selectivity (words)” value is on record as “substrate for 4A11”.
